Assay results: patent US9108930B2, “N1- and N2-carbamoyl-1,2,3-triazole serine hydrolase inhibitors and methods” (The Scripps Research Institute, priority 2011, dated 2015)
Entries after “also recorded” stand apart in the source; their conditions may differ.

Experiments:
[1] = biological target: T1, DAGLA (Mus musculus, UniProt Q6WQJ1); experiment: Activity against recombinant DAGLA; format: biochemical
T1 construct: Full-length cDNAs encoding serine hydrolases were purchased from Open Biosystems; V5; host or cells: HEK293T
T1 sequence (Q6WQJ1 whole entry): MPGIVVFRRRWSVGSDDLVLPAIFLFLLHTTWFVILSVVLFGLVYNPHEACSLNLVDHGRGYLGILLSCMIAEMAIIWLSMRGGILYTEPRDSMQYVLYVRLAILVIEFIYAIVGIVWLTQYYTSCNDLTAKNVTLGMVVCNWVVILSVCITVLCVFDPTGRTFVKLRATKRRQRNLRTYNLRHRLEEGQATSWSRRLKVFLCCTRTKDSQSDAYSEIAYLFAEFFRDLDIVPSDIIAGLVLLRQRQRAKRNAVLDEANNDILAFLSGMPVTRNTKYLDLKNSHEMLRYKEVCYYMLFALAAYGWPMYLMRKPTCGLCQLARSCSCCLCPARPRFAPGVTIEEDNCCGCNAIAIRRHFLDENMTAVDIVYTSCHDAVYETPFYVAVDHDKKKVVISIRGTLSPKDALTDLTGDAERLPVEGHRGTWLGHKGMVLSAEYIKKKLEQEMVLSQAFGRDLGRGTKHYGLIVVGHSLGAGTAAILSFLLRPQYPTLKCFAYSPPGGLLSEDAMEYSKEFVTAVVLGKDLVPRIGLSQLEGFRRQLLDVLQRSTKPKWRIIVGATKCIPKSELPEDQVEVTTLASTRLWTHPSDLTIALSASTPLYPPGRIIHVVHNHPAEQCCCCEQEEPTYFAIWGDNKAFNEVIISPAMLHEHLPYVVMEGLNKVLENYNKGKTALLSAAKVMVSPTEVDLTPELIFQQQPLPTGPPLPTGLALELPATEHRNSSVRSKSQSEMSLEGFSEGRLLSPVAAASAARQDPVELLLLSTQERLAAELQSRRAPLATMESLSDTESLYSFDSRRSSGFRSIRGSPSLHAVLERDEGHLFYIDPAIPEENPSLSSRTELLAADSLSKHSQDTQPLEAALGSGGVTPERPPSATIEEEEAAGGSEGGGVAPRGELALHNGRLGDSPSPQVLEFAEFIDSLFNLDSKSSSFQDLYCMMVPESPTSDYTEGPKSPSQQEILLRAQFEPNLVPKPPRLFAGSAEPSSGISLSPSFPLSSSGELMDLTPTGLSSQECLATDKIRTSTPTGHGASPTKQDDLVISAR

[2] = biological target: T2, DAGLB (Mus musculus, UniProt Q91WC9); experiment: ABPP-SILAC in Neuro2A cells; conditions: about 4 hours; 25 nM KT172, 50 nM KT109
T2 sequence (Q91WC9 1-669): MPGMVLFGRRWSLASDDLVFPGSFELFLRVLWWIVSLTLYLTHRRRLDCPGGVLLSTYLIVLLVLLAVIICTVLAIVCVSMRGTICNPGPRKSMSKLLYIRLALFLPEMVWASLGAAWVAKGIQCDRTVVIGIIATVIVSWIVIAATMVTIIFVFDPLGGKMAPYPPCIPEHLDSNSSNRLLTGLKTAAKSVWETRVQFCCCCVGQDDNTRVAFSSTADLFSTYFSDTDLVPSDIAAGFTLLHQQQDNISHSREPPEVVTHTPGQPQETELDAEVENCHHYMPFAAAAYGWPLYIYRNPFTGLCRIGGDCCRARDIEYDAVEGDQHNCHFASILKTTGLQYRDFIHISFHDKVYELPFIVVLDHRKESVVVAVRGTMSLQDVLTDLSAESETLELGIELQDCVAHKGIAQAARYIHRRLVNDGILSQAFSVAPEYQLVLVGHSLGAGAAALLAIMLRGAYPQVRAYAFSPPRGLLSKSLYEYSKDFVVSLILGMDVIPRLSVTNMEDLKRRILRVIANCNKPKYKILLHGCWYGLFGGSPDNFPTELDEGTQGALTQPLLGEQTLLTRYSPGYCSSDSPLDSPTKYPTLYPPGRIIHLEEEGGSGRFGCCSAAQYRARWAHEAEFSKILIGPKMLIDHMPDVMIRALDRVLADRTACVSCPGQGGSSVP

[3] = biological target: T3, endogenous DAGLB (Mus musculus, UniProt Q91WC9); experiment: HT01 labeling of endogenous DAGLB in mouse brain and peritoneal macrophage proteomes; format: biochemical; conditions: 2 μM pretreatment
T3 construct: from tissue; host or cells: mouse brain and peritoneal macrophages

[4] = biological target: T2, DAGLB; experiment: ABPP-MudPIT of peritoneal macrophages from treated mice; conditions: in vivo
[5] = biological target: T2, DAGLB; experiment: Gel-based ABPP assay against recombinant DAGLB (HEK293T-DAGLB lysates); format: biochemical; parameters: Full-length cDNAs encoding serine hydrolases were purchased from Open Biosystems; V5; host or cells: HEK293T; conditions: recombinant
[6] = biological target: T2, DAGLB; experiment: In vivo DAGLB inactivation in peritoneal macrophages, gel-based competitive ABPP using HT01; parameters: from tissue; host or cells: thioglycolate-elicited peritoneal macrophages of treated mice; conditions: i.p.
[7] = test system: serine hydrolases in mouse brain proteome; experiment: Selectivity profile by competitive ABPP (mouse brain proteome), DAGL series; format: biochemical
[8] = test system: peritoneal macrophages; experiment: Metabolomics of thioglycolate-elicited peritoneal macrophages from treated mice; format: in vivo, mouse; conditions: 5 mg/kg, 4 hours, i.p.
Experimental: Mice were treated with KT109, KT172 or KT195 (5 mg/kg, 4 hours, i.p.) to evaluate whether blockade of DAGLB in peritoneal macrophages would result in metabolic effects similar to those observed in Neuro2A cells. Thioglycolate-elicited peritoneal macrophages were harvested, and the cells were subjected to metabolomics studies. […] All the metabolic effects observed in pharmacological studies were recapitulated using Daglb^−/− mice, providing genetic evidence that the changes were indeed DAGLB-mediated.
Metabolites were quantified by either selected reaction monitoring (SRM) of each metabolite using an Agilent G6410B Triple-Quad instrument or untargeted metabolomic analysis (substrate assays) using an Agilent 1100 series LC-MSD SL instrument. […] For analysis of diacylglycerols (DAGs) a Luna C5 column (50 mm×4.60 mm with 5 μm diameter particles) from Phenomenex was used. Mobile phase A was made of 95:5 v/v H2O:MeOH, and mobile phase B was composed of 60:35:5 v/v/v i-PrOH:MeOH:H2O. Ammonium hydroxide (0.1%) and formic acid (0.1%) was included to assist in ion formation in negative and positive ionization modes, respectively. For analysis of DAGs, 5 mM ammonium formate was also used in addition to 0.1% formic acid to assist in positive ionization and NH4+ adduct formation. For metabolite measurements, cells were resuspended in 1 mL of a 1% NaCl solution and added to 3 mL of a 2:1 v/v CHCl3:MeOH doped with 1 nmol of the following internal standards: d5-2-arachidonoylglycerol (2-AG), d8-arachidonic acid (AA), and d8-1-stearoyl-2-arachidonoylglycerol (SAG). The mixture was vortexed and then centrifuged (1,400×g, 3 min). The organic layer was removed, CHCl3 was added until the final volume was again 4 ml, and the extraction was repeated. The combined organic extracts were dried under a stream of N2 and resolubilized in 2:1 v/v CHCl3:MeOH (120 μl). 30 μL of resolubilized lipids were injected for positive mode (MAGs and DAGs) and negative mode (free fatty acids and eicosanoids) measurements.
The following parameters (MS) were used to measure the indicated metabolites by SRM (precursor ion, product ion, collision energy in V, polarity): C20:4 MAG or 2-AG (379, 287, 8, positive), d5-2-AG (384, 287, 5, positive), C18:0/C20:4 DAG or SAG (662, 341, 15, positive), d8-SAG (671, 671, 0, positive), C18:1/C20:4 DAG (660, 341, 15, positive), C16:0/C20:4 DAG (634, 341, 15, positive), C14:0/C20:4 DAG (606, 341, 15, positive), arachidonic acid or AA (303, 303, 0, negative), d8-AA (311, 267, 5, negative), PGE2 (351, 271, 10, negative), and PGD2 (351, 271, 10, negative). MS analysis was performed with an electrospray ionization source with the following parameters: drying gas temperature=350° C., drying gas flow rate=11 L/min, and the nebulizer pressure=35 psi. Prostaglandin SRM parameters were based on previously reported methods and transitions. Metabolites targeted by SRM were quantified by measuring the area under the peak in comparison with the internal standards. For metabolites where isotopic internal standards were not used, external standard curves with the internal standard versus metabolite standard were generated. In DAGL substrate assays, formation of the hydrolysis product, 2-AG was followed by measuring the area under the peak for 2-AG in comparison to the 1-monopentadecanoin standard ion.

[9] = biological target: T2, DAGLB; experiment: In situ inhibition in Neuro2A cells, competitive ABPP with HT-01; format: cell-based; parameters: from tissue; host or cells: thioglycolate-elicited peritoneal macrophages of treated mice; conditions: 4 hours
Experimental: For gel-based competitive ABPP studies, proteomes from cells treated in situ with inhibitor for 4 h at 37° C. at the indicated concentrations (n=3) were labeled with HT-01 (1 μM) for 30 min at 37° C. After quenching, SDS-PAGE, and in-gel visualization, the percentage of enzyme activity remaining was determined by measuring the integrated optical intensity of the bands using IMAGER® software. For LC-MS substrate assays, the percentage of enzyme activity remaining was determined by comparing the specific activity (amount of 2-AG formed per min per mg of proteome) of inhibitor with DMSO-treated samples. The IC50 values were determined from a dose-response curve generated using GraphPad PRISM® software.

[10] = test system: serine hydrolases in the peritoneal macrophage proteome; experiment: ABPP-MudPIT of peritoneal macrophages from treated mice, off-targets; conditions: mouse, in vivo

COc1ccccc1-c1ccc(-c2cn(C(=O)N3CCCCC3Cc3ccccc3)nn2)cc1 (centres unmarked) [KT172]
activity against DAGLA [1]: more potent against the alpha isoform in comparison with KT109
DAGLB activity blocked [2]: approximately 90%
reduction of HT01 probe labeling of the DAGLB band [3]: > 80%
DAGLB inhibition by spectral counting [4]: confirmed inhibition of DAGLB
activity against DAGLB [5]: maintaining potency against DAGLB
time to complete inhibition of DAGLB ([6]; 5 mg/kg): within the first hour
duration / time-course of DAGLB inhibition ([6]; 5 mg/kg, about 1 to 16 hours): shorter compared with KT109
dose (as low as) giving complete inactivation of DAGLB in peritoneal macrophages ([6]; about 4 hours, doses about 10 to about 0.1 mg/kg): 0.5 mg/kg
off-target activity / selectivity against other serine hydrolases [7]: mild activity against this off-target enzyme at higher concentrations; also recorded: slightly increased activity against MGLL
change in 2-AG [8]: Dramatic decreases in 2-AG
change in SAG [8]: significant increases in SAG
change in cellular AA, PGE2 and PGD2 [8]: significant decreases in cellular AA levels and a corresponding reduction in PGE2 and PGD2
IC50 [9]: 0.011 µM
off-target activities [10]: carboxylesterases (Ces3 and Ces2g)
